Measured values taken from PubChem BioAssay (NCI).
Several values for one entry are separate records, joined by “and”; a condition that tells them apart may be missing. Equal entries are not always repeated.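 Tested at 5 concentrations; 48 h exposure; 96-well plates; endpoints linearly interpolated, else capped at highest concentration. At the GI50, growth is halved. At the TGI there is no net growth.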

What was measured:
Experiment in all cases: NCI tumour cell line growth inhibition, 48 h
[1] = test system: DMS 114 small cell lung
[2] = test system: DMS 273 small cell lung
[3] = test system: SNB-78 CNS
[4] = test system: XF 498 CNS
[5] = test system: BT-549 breast
[6] = test system: MDA-N
[7] = test system: HOP-18 NSCLC
[8] = test system: LXFL 529 NSCLC
[9] = test system: RXF-631 renal

Q: What does the source list for `O=C(c1ccccc1)c1c(-c2ccccc2)sc2nc3ccccc3nc12`?
A: TGI [1]: > 100 µM; TGI [2]: > 100 µM; TGI [3]: > 100 µM; TGI [4]: > 100 µM

Q: `CC(=C/C=C/C=C(C)\C=C\C=C(\C)C(=O)O)/C=C/C=C(/C)C(=O)O` was tested. Which TGI [5] did it give?
A: The TGI was over 100 µM.

Q: And the TGI [6]?
A: The TGI was over 100 µM.

Q: How did the TGI [1] turn out when `COc1ccc(NC(=O)CC/C(CC(=O)C(C)(C)C)=N\NC(=O)C(=O)NN)cc1` was run?
A: The TGI was over 100 µM.

Q: And the TGI [2]?
A: The TGI was over 100 µM.

Q: What about the TGI [7] of the same compound?
A: The TGI was over 100 µM.

Q: And the TGI [8]?
A: Its TGI is over 100 µM.

Q: And the TGI [9]?
A: The TGI was over 100 µM.

Q: And the TGI [3]?
A: The TGI was over 100 µM.

Q: With `Cc1cc(O)cc2c1[C@]1(C)CCC3C(C)(C)CCC[C@]3(C)[C@H]1C2` (stereo not given in full) as the compound, how does the GI50 [5] read?
A: Its GI50 is 21.6 µM.

Q: What about the TGI [5] of the same compound?
A: Its TGI is 38.6 µM.

Q: What does the source list for `COc1cccc(/C=C/[N+](=O)[O-])c1`?
A: GI50 [5]: 1.86 µM; TGI [5]: 3.99 µM

Q: What does the source list for `COc1ccc(-c2oc(=O)ccc2-c2cc(OC)c(OC)c(OC)c2)cc1O`?
A: GI50 [5]: 1.52 µM; TGI [5]: > 38.5 µM

Q: How did the GI50 [5] turn out when `O=c1cc(N2CCN(CCCCCOc3cc(O)c4c(=O)cc(-c5ccccc5)oc4c3)CC2)c2ccccc2o1` was run?
A: Its GI50 is 57.9 µM.

Q: What about the TGI [5] of the same compound?
A: Its TGI is over 100 µM.

Q: Which results are given for `Cc1nc2sc(C(=O)Nc3cccc4ccccc34)c(N)c2cc1C(O)c1ccccc1` (stereo not given)?
A: GI50 [5]: 0.144 µM; TGI [5]: 3.63 µM

Q: For `C#CC1(OC(C)=O)CCC2C3CC=C4C=C(OC(C)=O)CCC4(C)C3CCC21C` (stereo not given), which TGI [5] is on record?
A: The TGI was 83.1 µM.

Q: How did the TGI [1] turn out when `CC(C)(C)CC(C)(C)c1cc2c(O)c(c1)Cc1cc(C(C)(C)CC(C)(C)C)cc(c1O)Cc1cc(C(C)(C)CC(C)(C)C)cc(c1O)Cc1cc(C(C)(C)CC(C)(C)C)cc(c1O)Cc1cc(C(C)(C)CC(C)(C)C)cc(c1O)C2` was run?
A: Its TGI is over 100 µM.

Q: And the TGI [2]?
A: Its TGI is over 100 µM.

Q: And the TGI [8]?
A: The TGI was over 100 µM.

Q: And the TGI [3]?
A: The TGI was over 100 µM.

Q: And the TGI [4]?
A: Its TGI is over 100 µM.

Q: Which TGI [5] does the source give for `C=C1C(C2(C)C(OC(C)=O)CC(=O)OC(C)(COC(C)=O)C2CC(=O)OC)C(OC=O)C(OC(=O)C(O)C(C)CC)C2(C)C(c3ccoc3)CC(=O)C12O` (stereo not given) here?
A: Its TGI is over 30.5 µM.

Q: And the TGI [6]?
A: Its TGI is over 100 µM.

Q: With `COc1ccccc1C(O)(c1ccccc1)C(O)(c1ccccc1)c1ccccc1OC` (stereo not given) as the compound, how does the TGI [1] read?
A: Its TGI is over 100 µM.

Q: What about the TGI [2] of the same compound?
A: Its TGI is over 100 µM.

Q: And the TGI [7]?
A: Its TGI is over 100 µM.

Q: And the TGI [8]?
A: Its TGI is over 100 µM.

Q: And the TGI [9]?
A: Its TGI is over 100 µM.

Q: And the TGI [3]?
A: The TGI was over 100 µM.

Q: What about the TGI [4] of the same compound?
A: Its TGI is over 100 µM.

Q: What does the source list for `C/C(=N\Nc1cc(C)c2ccccc2n1)c1ccccn1`?
A: GI50 [5]: 0.301 µM; TGI [5]: 15.7 µM

Q: Which results are given for `O=C1Cc2c([nH]c3ccccc23)-c2ccccc2N1`?
A: TGI [2]: > 100 µM; TGI [7]: > 100 µM; TGI [8]: > 100 µM; TGI [3]: > 100 µM; TGI [4]: 91.8 µM

Q: Which TGI [6] does the source give for `O=C1c2ccccc2-c2oc(=O)c3ccccc3c21` here?
A: The TGI was over 100 µM.

Q: What does the source list for `CCOC(=O)NC1C2CC(=O)OC(O2)C1OC(C)=O` (stereo not given)?
A: GI50 [5]: > 100 µM; TGI [5]: > 100 µM; TGI [2]: > 100 µM; TGI [7]: > 100 µM; TGI [8]: > 100 µM; TGI [9]: > 100 µM; TGI [3]: > 100 µM

Q: Which results are given for `COc1cc2c(cc1OC)-c1ccc3cc4c(cc3c1N(CCCn1ccnc1)C2)OCO4`?
A: GI50 [5]: 3.78 µM; TGI [5]: 17.9 µM

Q: Which GI50 [5] does the source give for `C=C(CN1CCN(c2cccc(C(F)(F)F)n2)CC1)c1ccc(C(=O)Nc2ccccc2N)cc1` here?
A: Its GI50 is 0.918 µM and 0.34 µM.

Q: And the TGI [5]?
A: Its TGI is 88.4 µM and > 100 µM.

Q: `c1ccc2c(NCCCCCCNc3c4ccccc4nc4ccccc34)c3ccccc3nc2c1` was tested. Which TGI [5] did it give?
A: Its TGI is 3.32 µM.

Q: And the TGI [1]?
A: Its TGI is 2 µM.

Q: What about the TGI [2] of the same compound?
A: The TGI was 1.35 µM.

Q: And the TGI [7]?
A: The TGI was 15.2 µM.

Q: And the TGI [8]?
A: The TGI was 2.42 µM.

Q: And the TGI [6]?
A: Its TGI is 1.62 µM.

Q: What about the TGI [4] of the same compound?
A: The TGI was 2.72 µM.

Q: How did the GI50 [5] turn out when `Cc1ccc2c(-c3ccnc(Nc4ccccc4)n3)c(-c3ccc(F)cc3)nn2n1` was run?
A: Its GI50 is 10.7 µM.

Q: And the TGI [5]?
A: The TGI was over 25 µM.

Q: `CNC(=O)c1ccc(N2C(=S)N(c3ccc(C#N)c(C(F)(F)F)c3)C(=O)C2(C)C)cc1F` was tested. Which GI50 [5] did it give?
A: Its GI50 is 22.3 µM.

Q: What about the TGI [5] of the same compound?
A: Its TGI is over 73.4 µM.

Q: Which results are given for `CC(=O)N1C/C(=C/c2ccc(Cl)cc2)C(=O)/C(=C/c2ccc(Cl)cc2)C1`?
A: GI50 [5]: 0.435 µM; TGI [5]: 1.32 µM

Q: `COc1ccc(-c2cc(=O)c3ccccc3o2)cc1N` was tested. Which TGI [1] did it give?
A: The TGI was over 100 µM.

Q: What about the TGI [2] of the same compound?
A: The TGI was over 100 µM.

Q: And the TGI [7]?
A: The TGI was over 100 µM.

Q: What about the TGI [8] of the same compound?
A: The TGI was over 100 µM.

Q: What about the TGI [9] of the same compound?
A: Its TGI is over 100 µM.

Q: What about the TGI [3] of the same compound?
A: The TGI was over 100 µM.

Q: What about the TGI [4] of the same compound?
A: Its TGI is 91.1 µM.

Q: What does the source list for `C[C@]12CC[C@@H]3c4cc(-c5ccc(F)cc5)c(O)cc4CC[C@H]3[C@@H]1CC[C@@H]2O`?
A: GI50 [5]: 6.51 µM; TGI [5]: 23.3 µM

Q: How did the GI50 [5] turn out when `Cc1ccc(Cc2cnc(NC(=O)/C=C/c3cccc(C)c3)s2)cc1` was run?
A: Its GI50 is 0.256 µM.

Q: What about the TGI [5] of the same compound?
A: The TGI was over 27.4 µM.

Q: For `CNC(=S)NC(=O)c1c(Cl)n(C(=O)OC(C)(C)C)c2ccccc12`, which GI50 [5] is on record?
A: Its GI50 is 53.2 µM.

Q: What about the TGI [5] of the same compound?
A: The TGI was over 100 µM.

Q: How did the TGI [5] turn out when `Cc1cc(=O)oc2c(C)c(O)ccc12` was run?
A: Its TGI is over 100 µM.

Q: What about the TGI [6] of the same compound?
A: Its TGI is over 100 µM.

Q: With `COc1cc2ncn(-c3cc(O[C@@H](C)c4ccccc4Cl)c(C(N)=O)s3)c2cc1OC` as the compound, how does the GI50 [5] read?
A: The GI50 was 2.94 µM.

Q: What about the TGI [5] of the same compound?
A: Its TGI is over 24.1 µM.

Q: For `C[C@@H](O)[C@H](NC(=O)N[C@@H](CC(N)=O)c1nc([C@@H](N)CO)no1)C(=O)O`, which GI50 [5] is on record?
A: Its GI50 is over 100 µM.

Q: What about the TGI [5] of the same compound?
A: The TGI was over 100 µM.

Q: Which GI50 [5] does the source give for `CCN(Cc1ccccc1)c1ccc(CO)c(Cl)c1` here?
A: The GI50 was 14.1 µM.

Q: What about the TGI [5] of the same compound?
A: The TGI was 44.6 µM.

Q: Which TGI [1] does the source give for `CN(C)CCNC(=O)c1cccc2nc3cc(Cl)ccc3nc12` here?
A: Its TGI is 6.69 µM.

Q: And the TGI [2]?
A: Its TGI is over 100 µM.

Q: And the TGI [7]?
A: The TGI was over 63.2 µM.

Q: What about the TGI [8] of the same compound?
A: The TGI was over 22.3 µM.

Q: What about the TGI [3] of the same compound?
A: Its TGI is 10.5 µM.

Q: Which TGI [1] does the source give for `C=C(C#N)C1OCC2OC(C)(C)OC21` (stereo not given) here?
A: The TGI was 57.2 µM.

Q: And the TGI [2]?
A: The TGI was 43.1 µM.

Q: What about the TGI [7] of the same compound?
A: The TGI was 81.7 µM.

Q: And the TGI [9]?
A: Its TGI is 35.8 µM.

Q: And the TGI [3]?
A: The TGI was 43 µM.

Q: Which results are given for `CCC(=O)Nc1ccccc1C#C/C=C\C#Cc1ccccc1SC`?
A: GI50 [5]: 14.7 µM; TGI [5]: > 100 µM

Q: For `CC(=Nc1ccccc1)C1=C(O)C(Cc2ccc(O)cc2)NC1=O` (stereo not given), which GI50 [5] is on record?
A: Its GI50 is 0.0577 µM.

Q: What about the TGI [5] of the same compound?
A: Its TGI is 1.12 µM.

Q: Which results are given for `O=c1ccs[nH]1`?
A: TGI [5]: 40.3 µM; TGI [6]: 60.2 µM

Q: Which TGI [1] does the source give for `CC(=O)OC1CCn2nnc(CO)c21` (stereo not given) here?
A: Its TGI is over 100 µM.

Q: And the TGI [2]?
A: Its TGI is over 100 µM.

Q: What about the TGI [7] of the same compound?
A: The TGI was over 100 µM.

Q: What about the TGI [8] of the same compound?
A: Its TGI is over 100 µM.

Q: And the TGI [3]?
A: Its TGI is over 100 µM.

Q: What about the TGI [4] of the same compound?
A: Its TGI is over 100 µM.

Q: `COc1cc(Nc2nc3ccccc3nc2NS(=O)(=O)c2ccc(NC(=O)c3ccc(C)c(OC)c3)cc2)cc(OC)c1` was tested. Which TGI [5] did it give?
A: Its TGI is 20.9 µM and 49.2 µM and > 6.49 µM.

Q: Which TGI [1] does the source give for `CN1CC(=O)N(C)c2ncn(Cc3ccccc3)c2C1=O` here?
A: Its TGI is over 100 µM.

Q: And the TGI [2]?
A: Its TGI is over 100 µM.

Q: And the TGI [7]?
A: Its TGI is over 100 µM.

Q: What about the TGI [8] of the same compound?
A: The TGI was over 100 µM.

Q: And the TGI [9]?
A: The TGI was over 100 µM.

Q: And the TGI [3]?
A: Its TGI is over 100 µM.

Q: And the TGI [4]?
A: The TGI was 96.4 µM.
